Values joined by “and” are separate entries in the source; they are usually repeats but may differ in a detail not shown here. Equal entries are not always repeated. Structures can show the parent of a compound that is named as a salt.
How the values were obtained:
Assay in all cases: viability inhibition at highest dose (% inhibition); higher = more growth inhibition
BT-474 Tam1 = details: 4-OH-tamoxifen in medium 1 µM; 72 h
Description: (§1)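 Percent inhibition of viability (CellTiter-Glo, 72 h) at the highest tested concentration (D5), normalised to DMSO (0%) and 100 µM benzethonium chloride (100%). Resistant lines and the 'in 1µM tamoxifen' arms were tested in 1 µM 4-OH-tamoxifen.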

BT-474 Tam2 = details: 4-OH-tamoxifen in medium 1 µM; 72 h
Description: as §1

BT-474 = details: 72 h
Description: as §1

MCF-7 Tam1 = details: 4-OH-tamoxifen in medium 1 µM; 72 h
Description: as §1

MCF-7 = details: 72 h
Description: as §1

T-47D Tam1 = details: 4-OH-tamoxifen in medium 1 µM; 72 h
Description: as §1

T-47D Tam2 = details: 4-OH-tamoxifen in medium 1 µM; 72 h
Description: as §1

T-47D = details: 72 h
Description: as §1

ZR-75-1 Tam1 = details: 4-OH-tamoxifen in medium 1 µM; 72 h
Description: as §1

ZR-75-1 Tam2 = details: 4-OH-tamoxifen in medium 1 µM; 72 h
Description: as §1

ZR-75-1 = details: 72 h
Description: as §1

Structure (SMILES)	viability inhibition at highest dose (BT-474 Tam1)	viability inhibition at highest dose (BT-474 Tam2)	viability inhibition at highest dose (BT-474; 4-OH-tamoxifen in medium 0 µM)	viability inhibition at highest dose (BT-474; 4-OH-tamoxifen in medium 1 µM)	viability inhibition at highest dose (MCF-7 Tam1)	viability inhibition at highest dose (MCF-7; 4-OH-tamoxifen in medium 0 µM)	viability inhibition at highest dose (MCF-7; 4-OH-tamoxifen in medium 1 µM)	viability inhibition at highest dose (T-47D Tam1)	viability inhibition at highest dose (T-47D Tam2)	viability inhibition at highest dose (T-47D; 4-OH-tamoxifen in medium 0 µM)	viability inhibition at highest dose (T-47D; 4-OH-tamoxifen in medium 1 µM)	viability inhibition at highest dose (ZR-75-1 Tam1)	viability inhibition at highest dose (ZR-75-1 Tam2)	viability inhibition at highest dose (ZR-75-1; 4-OH-tamoxifen in medium 0 µM)	viability inhibition at highest dose (ZR-75-1; 4-OH-tamoxifen in medium 1 µM)
Cc1ccc([N+](=O)[O-])cc1S(=O)(=O)N(C)/N=C/c1cnc2ccc(Br)cn12 [PIK-75 (HCl)] (drug 10000 nM)	99.3	98.6	97.9	97.7	81.4	64.9	85.5	91.4	83.6	60.4	56.9	88.8	83.9	80	71
CNC(=O)c1cc(Oc2ccc(NC(=O)Nc3ccc(Cl)c(C(F)(F)F)c3)c(F)c2)ccn1 [Regorafenib (BAY 73-4506)] (drug 10000 nM)	93.1	76.2	38	73	18.1	52.7	33.5	31.3	16.3	29.1	18.2	22.4	32.6	17	18.3
C1CN1c1nc(N2CC2)nc(N2CC2)n1 [Triethylenemelamine] (drug 10000 nM)	7.12	-2.97	-11.5	-8.95	-10.7	1.71	-13.7	19.6	13	-11.6	-10.3	-3.65	-10	-18.1	-2.81
C=CCN(/C=C1/C(=O)O[C@H](COC)[C@@]2(C)C1=C(O)C(=O)C1=C2[C@H](OC(C)=O)C[C@]2(C)C(=O)CC[C@@H]12)CC=C [Sonolisib (PX-866)] (drug 10000 nM)	-5.08	-8.14	-6.97	-17.3	-2.1	-6.01	11.3	9.15	9.95	-6.68	0.837	15.2	13.3	7.54	18.1
Oc1ncnc2[nH]ncc12 [Allopurinol] (drug 10000 nM)	-0.277	8.84	2.31	19.8	3.95	-21.9	-2.88	5	4.5	0.987	3.06	8.36	-2.7	-2.05	9.69
NC(=O)c1ccc(I)c([N+](=O)[O-])c1 (drug 10000 nM)	-6.12	-6.48	3.04	-11	2	2.33	-5.76	7.73	14.7	-4.63	-1.38	7.66	-0.492	-1.66	4.93
CC(=O)O[C@H]1C(=O)[C@@]2(C)[C@H]([C@H](OC(=O)c3ccccc3)[C@]3(O)C[C@H](OC(=O)[C@H](O)[C@@H](NC(=O)c4ccccc4)c4ccccc4)C(C)=C1C3(C)C)[C@]1(OC(C)=O)CO[C@@H]1C[C@@H]2O [Paclitaxel] (drug 1000 nM)	35.2	25.5	42.7	55.7	-17.1	28.8	25.8	26	35.9	47	15.8	4.53	0.492	26.9	4.99
NC(=O)c1cccc2cn(-c3ccc([C@@H]4CCCNC4)cc3)nc12 [MK-4827] (drug 10000 nM)	42.3	21.1	-13.3	-7.59	-3.14	12.1	16.4	1.65	14.2	20.9	-1.38	2.04	9.71	11.6	8.9
CCc1c2c(nc3ccc(OC(=O)N4CCC(N5CCCCC5)CC4)cc13)-c1cc3c(c(=O)n1C2)COC(=O)[C@]3(O)CC [Irinotecan] (drug 10000 nM)	-9.22	-11	-20.2	-25.4	-8.36	23.7	23.7	34.4	23.3	42.8	-0.292	35	44.3	41.6	30
Oc1nc(-c2ccc(C(F)(F)F)cc2)nc2c1CSCC2 [XAV-939] (drug 10000 nM)	9.15	10.1	2.3	-20.3	-5.47	7.77	11.1	22.1	-6.24	-0.891	1.95	3.25	12.7	5.02	3.5
Cn1cc(C2=Nc3cc(NC(=O)C(N)C4CCCCC4)cc4c3C2=CNNC4=O)cn1 (stereo not given) (drug 10000 nM)	3.49	-6.26	3.65	-3.68	1.36	31	12.3	28.7	26.5	4.48	28.4	-5.99	-2.91	8.7	-11.4
Cc1nc(Nc2ncc(C(=O)Nc3c(C)cccc3Cl)s2)cc(N2CCN(CCO)CC2)n1 [Dasatinib] (drug 1000 nM)	37.1 and 33.4	–	–	1.98 and 3.29	–	–	12.7 and 8.15	35.9 and 30.8	35.6 and 31.4	–	30.8 and 16.6	-34.5 and -23.8	-36.2 and -32.2	-61.6 and -72.5	-39.5 and -41.9

From the supplement of paper PMC4932681
